Converted amounts (≈) assume the structure as drawn. Square brackets hold non-standard residues; d marks the D form. Ends that are not written are not given here. Peptide text beside a SMILES is read from it.
Columns and labels:
human red blood cells = test: Hemolytic activity; assay type: cell-based; conditions: red cells of human, 18 h
Procedure: Human red blood cells (Zenbio, North Carolina, USA) and peptides were separately diluted in PBS (blood concentration, 8%). The blood cell and peptide solutions were then mixed in 96-well polyethylene plates (SPL, Gyeonggi-do, Korea) and incubated for 18 h at 37 °C. The final concentration of human red blood cells was 4%, while peptide concentrations were 100 μM, 50 μM, 25 μM, 12.5 μM, 6.25 μM, 3.13 μM, 1.56 μM, and 0.78 μM. After incubation, the plates were centrifuged at 1000 × g for 5 min, and the supernatants were transferred to 96-well polyethylene plates. Hemolysis levels were determined by measuring the absorbance at 540 nm with a SpectraMax plate spectrophotometer (Molecular Devices, California, USA). Control samples were treated with 1% Triton X-100 (for 100% hemolysis) or solution with 0 μM peptide (for 0% hemolysis) and melittin (for positive control). Each experiment was performed in triplicate.

MDR P. aeruginosa = test: microbe, parasite or virus in culture; conditions: CLSI broth microdilution; CAMHB with 50 mg/L Ca2+, 10 mg/L Mg2+; 5 × 10^5 CFU/ml; 18 h 37 °C; no visible turbidity; triplicate; strain CCARM 2180
Source text: (§1) MDR Pseudomonas aeruginosa (CCARM 2180) was purchased from the Culture Collection of Antimicrobial Resistance Microbes (Seoul, Republic of Korea). MDR Acinetobacter baumannii (ATCC BAA-1605) and MDR Enterococcus faecalis (ATCC 51575) were purchased from the American Type Culture Collection (Manassas, VA, USA). MDR Staphylococcus aureus (KCCM 40510) was purchased from the Korean Culture Center of Microorganisms (Seoul, Republic of Korea). S. aureus (KCTC 1621) was purchased from the Korean Collection for Type Cultures. A. baumannii (KCCM 40203) was purchased from the Korean Culture Center of Microorganisms (Seoul, Republic of Korea).
(§2) To assess antimicrobial activity, the MIC50 and MIC90 were measured using broth microdilution following CLSI guidelines. […] Each experiment was performed in triplicate. Meropenem (Sigma, Darmstadt, Germany) and colistin were used as control antibiotics. Cation-adjusted Mueller–Hinton broth (CAMHB) (Becton, Dickinson and Company, Franklin Lakes, USA) with supplied calcium (50 mg/L) and magnesium (10 mg/L) was used for the CLSI-test condition. Bacteria in midlog phase and peptides were separately diluted in CAMHB. The bacteria and peptide solutions were then mixed in 96-well polyethylene plates (SPL, Gyeonggi-do, Korea) and incubated for 18 h at 37 °C. The final concentration for bacteria was 5 × 10^5 CFU/ml. […] The MIC was defined to be the lowest concentration of peptide without visible turbidity by comparing with control antibiotics with the unaided eye. […] Each experiment was performed in triplicate. MICs in albumin and acetic acid solutions were measured using the same protocol but with 0.2% bovine serum albumin (Bovogen, Keilor, Australia), 0.01% acetic acid (Merck, New Jersey, USA), and CAMHB with both calcium and magnesium. In addition, MICs used in the antibiotic resistance acquisition test, the outer–inner membrane permeation test, and the transmembrane potential test and for FE-SEM were individually determined. The final bacterial concentrations used were as follows: for resistance acquisition, optical density (OD) 0.01; for outer–inner membrane permeability assays (LB), OD 0.1; for the transmembrane potential test, 1 × 10^8 CFU/ml (OD 0.171); […]. Inhibitory activity unidentifiable by direct observation was determined by counting the CFUs. Each experiment was performed at least twice.

MDR A. baumannii = test: microbe, parasite or virus in culture; conditions: CLSI broth microdilution; CAMHB with 50 mg/L Ca2+, 10 mg/L Mg2+; 5 × 10^5 CFU/ml; 18 h 37 °C; triplicate; strain ATCC BAA-1605
Source text: as §1, §2

MDR S. aureus = test: microbe, parasite or virus in culture; conditions: CLSI broth microdilution; CAMHB with 50 mg/L Ca2+, 10 mg/L Mg2+; 5 × 10^5 CFU/ml; 18 h 37 °C; triplicate; strain KCCM 40510
Source text: as §1, §2

Compound	Hemolysis percent, 25 μM (human red blood cells) [%]	Hemolysis percent, 50 μM (human red blood cells) [%]	Hemolysis percent, 100 μM (human red blood cells) [%]	Minimum inhibitory concentrations, MDR P. aeruginosa (MDR P. aeruginosa) [µM]	Minimum inhibitory concentrations, MDR A. baumannii (MDR A. baumannii) [µM]	Minimum inhibitory concentrations, MDR S. aureus (MDR S. aureus) [µM]
WLLWIALRKKR-NH2 [WCopW1]	7.03	10.46	19.40	> 20		
CC(C)[C@@H](NC(=O)[C@H](N)Cc1c[nH]c2ccccc12)C(=O)N[C@@H](C(=O)N[C@@H](C(=O)N[C@@H](C(=O)N[C@H](Cc1c[nH]c2ccccc12)C(=O)N[C@H](CCCNC(=N)N)C(=O)N[C@H](CCCNC(=N)N)C(=O)N[C@H](CCCNC(=N)N)C(N)=O)C(C)C)C(C)C)C(C)C [WCopW44] (H-[dW][dV][dV][dV][dV][dW][dR][dR][dR]-NH2)	0.11 ±0.03	0.87 ±0.36	4.48 ±1.01		2.5 (≈ 3.14 µg/mL)	1.25 (≈ 1.57 µg/mL)
CC(C)C[C@@H](NC(=O)[C@H](N)Cc1c[nH]c2ccccc12)C(=O)N[C@@H](C(=O)N[C@H](Cc1c[nH]c2ccccc12)C(=O)N[C@H](CCCCN)C(=O)N[C@H](Cc1c[nH]c2ccccc12)C(=O)N[C@H](CCCNC(=N)N)C(=O)N[C@H](CCCNC(=N)N)C(=O)N[C@H](CCCNC(=N)N)C(N)=O)C(C)C [WCopW37] (H-[dW][dL][dV][dW][dK][dW][dR][dR][dR]-NH2)	0.13 ±0.02	0.08 ±0.01	0.16 ±0.03		2.5 (≈ 3.46 µg/mL)	5 (≈ 6.92 µg/mL)
CC(C)C[C@@H](NC(=O)[C@H](N)Cc1c[nH]c2ccccc12)C(=O)N[C@@H](C(=O)N[C@H](Cc1c[nH]c2ccccc12)C(=O)N[C@@H](C(=O)N[C@H](Cc1ccc(O)cc1)C(=O)N[C@H](CC(C)C)C(=O)N[C@H](CCCNC(=N)N)C(=O)N[C@H](CCCCN)C(=O)N[C@H](CCCCN)C(=O)N[C@H](CCCNC(=N)N)C(N)=O)C(C)C)C(C)C [WCopWVY2] (H-[dW][dL][dV][dW][dV][dY][dL][dR][dK][dK][dR]-NH2)	3.46	6.02	10.12			
CC[C@@H](C)[C@@H](NC(=O)[C@@H](Cc1c[nH]c2ccccc12)NC(=O)[C@@H](CC(C)C)NC(=O)[C@H](N)CC(C)C)C(=O)N[C@H](C)C(=O)N[C@H](CC(C)C)C(=O)N[C@H](CCCNC(=N)N)C(=O)N[C@H](CCCCN)C(=O)N[C@H](CCCCN)C(=O)N[C@H](CCCNC(=N)N)C(N)=O [WCopW11] (H-[dL][dL][dW][dI][dA][dL][dR][dK][dK][dR]-NH2)	0.94	1.02	1.08			
CC[C@@H](C)[C@@H](NC(=O)[C@@H](Cc1c[nH]c2ccccc12)NC(=O)[C@H](NC(=O)[C@@H](CC(C)C)NC(=O)[C@@H](Cc1c[nH]c2ccccc12)NC(=O)[C@H](N)CC(=O)O)C(C)C)C(=O)N[C@H](Cc1c[nH]c2ccccc12)C(=O)N[C@H](CCCNC(=N)N)C(=O)N[C@H](CCCNC(=N)N)C(=O)N[C@H](CCCNC(=N)N)C(N)=O [WCopW36] (H-[dD][dW][dL][dV][dW][dI][dW][dR][dR][dR]-NH2)	4.03 ±0.40	7.48 ±0.90	9.86 ±1.62			1.25 (≈ 1.86 µg/mL)
CC[C@@H](C)[C@@H](NC(=O)[C@@H](Cc1c[nH]c2ccccc12)NC(=O)[C@@H](Cc1ccc(O)cc1)NC(=O)[C@@H](CC(C)C)NC(=O)[C@H](N)Cc1c[nH]c2ccccc12)C(=O)N[C@H](CC(C)C)C(=O)N[C@H](CC(C)C)C(=O)N[C@H](CCCNC(=N)N)C(=O)N[C@H](CCCCN)C(=O)N[C@H](CCCCN)C(=O)N[C@H](CCCNC(=N)N)C(N)=O [WCopWYL] (H-[dW][dL][dY][dW][dI][dL][dL][dR][dK][dK][dR]-NH2)	2.50	6.29	9.62			
CC[C@@H](C)[C@@H](NC(=O)[C@@H](Cc1c[nH]c2ccccc12)NC(=O)[C@H](NC(=O)[C@@H](CC(C)C)NC(=O)[C@H](N)Cc1c[nH]c2ccccc12)C(C)C)C(=O)N[C@H](Cc1ccc(O)cc1)C(=O)N[C@H](CCCNC(=N)N)C(=O)N[C@H](CCCNC(=N)N)C(=O)N[C@H](CCCNC(=N)N)C(N)=O [WCopW33] (H-[dW][dL][dV][dW][dI][dY][dR][dR][dR]-NH2)	3.49	6.35	9.93			
CC(C)[C@@H](NC(=O)[C@H](N)Cc1c[nH]c2ccccc12)C(=O)N[C@@H](C(=O)N[C@H](Cc1c[nH]c2ccccc12)C(=O)N[C@@H](C(=O)N[C@@H](C(=O)N[C@H](Cc1c[nH]c2ccccc12)C(=O)N[C@H](CCCNC(=N)N)C(=O)N[C@H](CCCNC(=N)N)C(=O)N[C@H](CCCNC(=N)N)C(N)=O)C(C)C)C(C)C)C(C)C [WCopW42] (H-[dW][dV][dV][dW][dV][dV][dW][dR][dR][dR]-NH2)	7.14	16.66	26.66			
CC[C@@H](C)[C@@H](NC(=O)[C@@H](Cc1c[nH]c2ccccc12)NC(=O)[C@H](NC(=O)[C@@H](CC(C)C)NC(=O)[C@H](N)Cc1c[nH]c2ccccc12)C(C)C)C(=O)N[C@H](Cc1ccc(O)cc1)C(=O)N[C@H](CC(C)C)C(=O)N[C@H](CCCNC(=N)N)C(=O)N[C@H](CCCCN)C(=O)N[C@H](CCCCN)C(=O)N[C@H](CCCNC(=N)N)C(N)=O [WCopWVY] (H-[dW][dL][dV][dW][dI][dY][dL][dR][dK][dK][dR]-NH2)	2.47	4.51	7.25			
CC(C)[C@@H](NC(=O)[C@H](N)Cc1c[nH]c2ccccc12)C(=O)N[C@@H](C(=O)N[C@H](Cc1c[nH]c2ccccc12)C(=O)N[C@@H](C(=O)N[C@H](Cc1c[nH]c2ccccc12)C(=O)N[C@H](CCCNC(=N)N)C(=O)N[C@H](CCCNC(=N)N)C(=O)N[C@H](CCCNC(=N)N)C(N)=O)C(C)C)C(C)C [WCopW40] (H-[dW][dV][dV][dW][dV][dW][dR][dR][dR]-NH2)	0.45	0.59	2.14			
CC[C@@H](C)[C@@H](NC(=O)[C@@H](Cc1c[nH]c2ccccc12)NC(=O)[C@H](NC(=O)[C@@H](CC(C)C)NC(=O)[C@H](N)Cc1c[nH]c2ccccc12)C(C)C)C(=O)N[C@H](Cc1c[nH]c2ccccc12)C(=O)N[C@H](CCCNC(=N)N)C(=O)N[C@H](CCCNC(=N)N)C(=O)N[C@H](CCCCN)C(=O)N[C@H](CCCNC(=N)N)C(N)=O [WCopW28] (H-[dW][dL][dV][dW][dI][dW][dR][dR][dK][dR]-NH2)	2.33	1.97	5.26			

Source: article PMC9643456, “Matching amino acids membrane preference profile to improve activity of antimicrobial peptides” (Communications Biology, 2022)
